Common to all, as to format: cell-based, human
Experiment [1] concerns NCI-H292 cells. Nature of the experiment: Immunogenic cell death: HMGB1 release in supernatant (sandwich ELISA), 48 hours. As to conditions: for HMGB-1 Release Span: supernatant. How it is done:
(§1) Immunogenic cell death elicited by the TROP2 ADC, iSAC, iADCs and exatecan were measured by cell surface translocate of calreticulin and release of HMGB1 in the cell culture supernatant. Briefly, TROP2 positive cell line NCI-H292 were seeded into a 96-well flat bottom plate 4 hours prior to the initialization of the assay. Test articles were formulated at a 2× starting concentration in cell culture medium, and samples were serial diluted (1:3) under sterile conditions and added onto the cells in duplicates. After incubation at 37° C. in a CO2 incubator for 48 hours, the cell supernatant was collected for measuring HMGB1 and the adherent cells were collected for calreticulin expression on the cell surface.
HMGB1 released in the supernatant was assessed via sandwich ELISA using mouse anti-human HMGB1 clone 2F6 (Sigma-Aldrich) as the capture, polyclonal rabbit anti-human HMGB1 (Abcam) as secondary, and polyclonal goat anti-rabbit IgG HRP as the detection antibody. The HMGB1 concentrations in the cell culture medium were calculated based a standard curve built on commercially available recombinant human HMGB1 (R&D Systems).
(ELISA stands for enzyme-linked immunosorbent assay.)

Experiment [2] relates to TROP2 positive NCI-H292, NCI-H441 cells and TROP2 negative NCI-H460 and NCI-H1703 cells. The experiment in a line: Cell proliferation (cell killing) assay, cell line panel. The note with it: all TROP2 positive and negative cell lines tested. As to the method: (§2) The cytotoxicity of the ADCs, iSACs and iADCs was measured in a cell proliferation assay. TROP2 positive NCI-H292, NCI-H441 cells and TROP2 negative NCI-H460 and NCI-H1703 cells were obtained from ATCC (American Type Culture Collection) and maintained in DMEM/F12 (1:1), high glucose (Corning) supplemented with 10% heat-inactivated fetal bovine serum (Thermo Scientific), 2 mM glutamax (Thermo Scientific), and 1× Penicillin/Streptomycin (Corning).
(§3) Cells were collected and counted by the Vi-CELL Cell Viability Analyzers (Beckman Coulter). A total of 7500 cells in a volume of 50 uL were seeded in each well of a 96-well flat bottom white Polystyrene plate. Test articles were diluted at 2× final concentration in the cell culture medium and 50 uL was added into each treatment well. Assay plates were cultured at 37° C. in a CO2 incubator for 120 hours. For cell viability measurement, 60 μL of Cell Titer-Glo® reagent (Promega Corp. Madison, WI) was added into each well, and plates were processed as per product instructions. Relative luminescence was measured on an ENVISION® plate reader (Perkin-Elmer; Waltham, MA). Relative luminescence readings were converted to % viability using untreated cells as controls. Data was fitted with non-linear regression analysis, using log(inhibitor) vs. response-variable slope, 4 parameter fit equation using GraphPad Prism (GraphPad v 5.00, Software; San Diego, CA).

For experiment [3], the system named is NCI-H292 cells. The experiment in a line: Immunogenic cell death: cell surface calreticulin (CALR) on live cells (flow cytometry), 48 hours. The note with it: NCI-H292 cells. How it is done: as §1
NCI-H292 cells were detached using Accutase (Innovative Cell Technologies) and viability was accessed using a 1:500 dilution of Zombie NIR viability dye. […] Surface calreticulin measures on the live cells were gathered using an Attune NXT Flow Cytometer (ThermoFisher Scientific) to obtain median fluorescence intensity values. All data were fitted with non-linear regression analysis, using log(agonist) vs. response, variable slope, 4 parameter fit equation using GraphPad Prism.
A general note: A flow cytometer gives signals particle by particle.

The next experiment relates to NCI-H441 (Trop2+). The experiment in a line: Cell proliferation (cell killing) assay, Cell Titer-Glo, 120 hours. As to conditions: for EC50: Homo sapiens. As to the method:
as §2, §3

The test system of a further experiment is NCI-H1703 (Trop2-). Described as above. As to conditions: for EC50: Homo sapiens. How it is done: as §2, §3
A further experiment relates to NCI-H292 (Trop2+). The experiment is described as above. The note with it: for EC50: Homo sapiens. As to the method:
as §2, §3

A further experiment concerns NCI-H460 (Trop2-). The description is as above. As to conditions: for EC50: Homo sapiens. How it is done:
as §2, §3

In experiment [4] the test system is NCI-H292 cells. Nature of the experiment: IP-10 and IL-6 release from TROP2 positive NCI-H292 cells, 120 hours (MSD). As to conditions: for EC50: Homo sapiens. How it is done:
The cell supernatant was collected and IP-10 and IL-6 released in the cell culture medium was measured using Streptavidin single spot 96 well plates, compatible human antibody pairs, and calibrating solutions commercially available from MesoScale Discovery. Raw data generated by the Meso Scale Discovery (MSD®) SQ120 plate reader was imported into MSD Discovery Workbench software. Unknown sample values were interpolated from standard curves by the software and imported into Graphpad Prism. Each cytokine level was fitted with non-linear regression analysis, using log(agonist) vs. response, variable slope, 4-parameter fit equation in GraphPad Prism.

Setting [5] is: NCI-H292 cells, read-out: IL-6 induction EC50.
[6] abbreviates: NCI-H292 cells, read-out: IP-10 induction EC50.
Setting [7] is: TROP2 positive NCI-H292 cells, read-out: IL-6 Release EC50.
Setting [8] is: TROP2 positive NCI-H292 cells, read-out: IP-10 Release EC50.

Like-named read-outs stand apart in the source and are kept apart here. A value given as a limit tells only on which side of the number the result lay.

As a reminder, the EC50 is the concentration at which the effect is half-maximal. For `CCn1nc(C)cc1C(=O)Nc1nc2cc(C(N)=O)cc(OC)c2n1C/C=C/Cn1c(NC(=O)c2cc(C)nn2CC)nc2cc(C(N)=O)cc(OCCCN3CCC(c4nnc5n4CCNC5)CC3)c21` [Compound S-3, 1-[(E)-4-[5-Carbamoyl-2-[(2-ethyl-5-methyl-pyrazole-3-carbonyl)amino]-7-[3-[4-(5,6,7,8-tetrahydro-[1,2,4]triazolo[4,3-a]pyrazin-3-yl)-1-piperidyl]propoxy]benzimidazol-1-yl]but-2-enyl]-2-[(2-ethyl-5-methyl-pyrazole-3-carbonyl)amino]-7-methoxy-benzimidazole-5-carboxamide], in the experiment with NCI-H292 cells [1], the “release of HMGB1 into the cell culture supernatant” value was determined as 30 ng/mL. Further, the “HMGB-1 Release Span” value in the experiment on NCI-H292 cells [1] is reported as 11 ng/mL. Further, in experiment [2], the “cell killing (in words)” value is listed as “did not result in significant cell killing”. For the same compound, the “induction of CALR on live cells compared to untreated cells” value with NCI-H292 cells [3] is listed as “no induction of CALR”. For the same compound, the Span cell killing in the experiment with NCI-H441 (Trop2+), in the experiment on NCI-H1703 (Trop2-), with NCI-H292 (Trop2+) and in the experiment with NCI-H460 (Trop2-) was <15% each time. In addition, the half-maximal effective concentration (EC50) in the experiment on NCI-H441 (Trop2+), with NCI-H1703 (Trop2-), in the experiment on NCI-H292 (Trop2+), with NCI-H460 (Trop2-), in the experiment with NCI-H292 cells [4] (setting [5]) and in the experiment with NCI-H292 cells [4] (setting [6]) was > 100 nM each time. Also, the EC50 with NCI-H292 cells [4] (setting [7]) and in the experiment on NCI-H292 cells [4] (setting [8]) was > 100 nM throughout. Moreover, in the experiment with NCI-H292 cells [4] (TROP2 positive NCI-H292 cells), the “IL-6 Release Span” value is >8000 pg/mL. Further, the “IP-10 Release Span” value in the experiment on NCI-H292 cells [4] (TROP2 positive NCI-H292 cells) is given as >4000 pg/mL.

Regarding `CCn1nc(C)cc1C(=O)Nc1nc2cc(C(N)=O)ccc2n1C/C=C/Cn1c(NC(=O)c2cc(C)nn2CC)nc2cc(C(N)=O)cc(OCCCN3CC4(CNCCO4)C3)c21` [Compound S-1], the “release of HMGB1 into the cell culture supernatant” value in the experiment on NCI-H292 cells [1] amounted to 30 ng/mL. For the same compound, the “HMGB-1 Release Span” value in the experiment with NCI-H292 cells [1] is 17 ng/mL. The “cell killing (in words)” value in experiment [2] was “did not result in significant cell killing”. Besides, the “induction of CALR on live cells compared to untreated cells” value with NCI-H292 cells [3] is “no induction of CALR”. The Span cell killing with NCI-H441 (Trop2+), with NCI-H1703 (Trop2-), in the experiment with NCI-H292 (Trop2+) and in the experiment on NCI-H460 (Trop2-) was <15% in each case. Besides, the EC50 with NCI-H441 (Trop2+), in the experiment with NCI-H1703 (Trop2-), with NCI-H292 (Trop2+), in the experiment with NCI-H460 (Trop2-), in the experiment on NCI-H292 cells [4] (setting [5]) and with NCI-H292 cells [4] (setting [6]) was > 100 nM throughout. Also, the EC50 with NCI-H292 cells [4] (setting [7]) and in the experiment with NCI-H292 cells [4] (setting [8]) was > 100 nM in each case. Also, the “IL-6 Release Span” value with NCI-H292 cells [4] (TROP2 positive NCI-H292 cells) was >10000 pg/mL. Also, the “IP-10 Release Span” value with NCI-H292 cells [4] (TROP2 positive NCI-H292 cells) is reported as >4000 pg/mL.

For the origin of these results see patent US20260053942A1, “STING AGONIST IMMUNOSTIMULATORY ANTIBODY DRUG CONJUGATES” (ASTELLAS PHARAMA INC., priority 2024, published 2026).
